These results are taken from ChEMBL document CHEMBL1938230, “6-Position optimization of tricyclic 4-quinolone-based inhibitors of glycogen synthase kinase-3β: discovery of nitrile derivatives with picomolar potency” (Bioorg Med Chem Lett, 2012).

The structures appear in SMILES notation. Converted amounts (≈) assume the structure as drawn.

Data set [1] addresses Serine/threonine-protein kinase mTOR (Homo sapiens) (UniProt P42345). Description: Inhibition of human mTOR in HL-60 cells lysate assessed as reduction of labeling of acyl-phosphate ATP probe at 100 nM. The format is cell-free.
Data set [2] addresses Phosphatidylinositol 3-kinase catalytic subunit type 3 (Homo sapiens) (UniProt Q8NEB9). Nature of the data set: Inhibition of human PIK3C3 in HL-60 cells lysate assessed as reduction of labeling of acyl-phosphate ATP probe at 100 nM. It counts as cell-free.
The target in data set [3] is T1, Phosphatidylinositol 4,5-bisphosphate 3-kinase catalytic subunit delta isoform (Homo sapiens) (UniProt O00329).
T1 sequence (whole entry): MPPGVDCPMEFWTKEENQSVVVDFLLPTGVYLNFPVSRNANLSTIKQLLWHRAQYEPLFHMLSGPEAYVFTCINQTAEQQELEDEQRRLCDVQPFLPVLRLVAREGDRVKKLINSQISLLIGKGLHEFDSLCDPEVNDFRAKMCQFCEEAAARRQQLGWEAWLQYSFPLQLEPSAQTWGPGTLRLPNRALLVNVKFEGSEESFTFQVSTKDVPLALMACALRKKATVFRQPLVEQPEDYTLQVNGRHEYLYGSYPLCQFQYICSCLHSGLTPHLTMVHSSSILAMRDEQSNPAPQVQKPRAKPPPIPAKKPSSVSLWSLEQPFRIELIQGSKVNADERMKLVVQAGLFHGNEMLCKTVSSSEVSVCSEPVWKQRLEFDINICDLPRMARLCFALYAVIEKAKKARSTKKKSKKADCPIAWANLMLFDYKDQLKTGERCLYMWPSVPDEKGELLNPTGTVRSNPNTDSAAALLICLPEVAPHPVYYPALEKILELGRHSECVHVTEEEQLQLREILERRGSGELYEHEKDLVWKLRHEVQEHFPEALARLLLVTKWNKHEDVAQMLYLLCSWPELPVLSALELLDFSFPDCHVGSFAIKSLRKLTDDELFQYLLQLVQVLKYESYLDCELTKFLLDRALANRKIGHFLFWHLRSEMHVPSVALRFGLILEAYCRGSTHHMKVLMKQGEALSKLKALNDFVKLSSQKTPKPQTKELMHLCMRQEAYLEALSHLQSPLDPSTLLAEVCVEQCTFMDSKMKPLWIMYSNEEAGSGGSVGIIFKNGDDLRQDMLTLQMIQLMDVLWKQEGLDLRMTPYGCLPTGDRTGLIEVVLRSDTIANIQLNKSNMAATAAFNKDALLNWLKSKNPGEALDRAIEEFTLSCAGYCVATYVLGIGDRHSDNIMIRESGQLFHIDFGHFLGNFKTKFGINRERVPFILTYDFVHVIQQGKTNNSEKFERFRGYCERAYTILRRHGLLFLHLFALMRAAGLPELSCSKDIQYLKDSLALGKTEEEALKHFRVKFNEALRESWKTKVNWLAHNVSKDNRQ
Nature of the data set: Inhibition of human PIK3CD in HL-60 cells lysate assessed as reduction of labeling of acyl-phosphate ATP probe at 100 nM. It counts as cell-free.

The target of data set [4] is Serine/threonine-protein kinase Nek7 (Homo sapiens) (UniProt Q8TDX7). Description: Inhibition of human NEK7 in HL-60 cells lysate assessed as reduction of labeling of acyl-phosphate ATP probe at 100 nM. The format is cell-free.
For data set [5], the target named is T2, Serine/threonine-protein kinase ULK3 (Homo sapiens) (UniProt Q6PHR2).
T2 sequence (whole entry): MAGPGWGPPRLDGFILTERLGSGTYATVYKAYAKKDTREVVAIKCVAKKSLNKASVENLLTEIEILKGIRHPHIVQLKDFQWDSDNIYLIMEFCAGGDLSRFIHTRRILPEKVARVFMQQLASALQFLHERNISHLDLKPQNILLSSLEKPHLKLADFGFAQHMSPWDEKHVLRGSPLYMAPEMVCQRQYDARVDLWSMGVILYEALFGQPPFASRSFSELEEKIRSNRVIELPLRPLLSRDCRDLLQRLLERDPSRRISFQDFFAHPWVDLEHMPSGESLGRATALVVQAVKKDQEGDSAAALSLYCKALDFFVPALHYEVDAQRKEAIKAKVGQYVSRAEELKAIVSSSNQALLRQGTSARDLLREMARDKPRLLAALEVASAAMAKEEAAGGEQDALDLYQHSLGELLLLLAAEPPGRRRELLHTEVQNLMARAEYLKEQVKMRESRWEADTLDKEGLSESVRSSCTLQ
Nature of the data set: Inhibition of human ULK3 in HL-60 cells lysate assessed as reduction of labeling of acyl-phosphate ATP probe at 100 nM. It counts as cell-free.

For data set [6], the target named is Mitogen-activated protein kinase kinase kinase kinase 1 (Homo sapiens) (UniProt Q92918). Nature of the data set: Inhibition of human HPK1 in HL-60 cells lysate assessed as reduction of labeling of acyl-phosphate ATP probe at 100 nM. It counts as cell-free.
Data set [7] deals with Serine/threonine-protein kinase 10 (Homo sapiens) (UniProt O94804). Description: Inhibition of human LOK in HL-60 cells lysate assessed as reduction of labeling of acyl-phosphate ATP probe at 100 nM. The format is cell-free.
Data set [8] has as its target TRAF2 and NCK-interacting protein kinase (Homo sapiens) (UniProt Q9UKE5). Nature of the data set: Inhibition of human ZC2/TNIK in HL-60 cells lysate assessed as reduction of labeling of acyl-phosphate ATP probe at 100 nM. It counts as cell-free.
For data set [9], the target named is Tyrosine-protein kinase JAK1 (Homo sapiens) (UniProt P23458). Nature of the data set: Inhibition of human JAK1 domain1 in HL-60 cells lysate assessed as reduction of labeling of acyl-phosphate ATP probe at 100 nM. It counts as cell-free.
The subject of a further data set is Staphylococcus aureus. Nature of the data set: Antibacterial activity against Staphylococcus aureus Smith. It counts as ADME, organism-based.
Data set [10] concerns the target Cyclin-dependent kinase 9 (Homo sapiens) (UniProt P50750). Description: Inhibition of human CDK9 in HL-60 cells lysate assessed as reduction of labeling of acyl-phosphate ATP probe at 100 nM. The format is cell-free.
For data set [11], the target named is Mitogen-activated protein kinase 7 (Homo sapiens) (UniProt Q13164). Description: Inhibition of human Erk5 in HL-60 cells lysate assessed as reduction of labeling of acyl-phosphate ATP probe at 100 nM. The format is cell-free.
Data set [12] concerns the target Cyclin-dependent kinase 17 (Homo sapiens) (UniProt Q00537). Description: Inhibition of human PCTAIRE2 in HL-60 cells lysate assessed as reduction of labeling of acyl-phosphate ATP probe at 100 nM. The format is cell-free.

Chain of Phosphatidylinositol 3-kinase catalytic subunit type 3 (Homo sapiens) (Q8NEB9 whole entry, canonical isoform): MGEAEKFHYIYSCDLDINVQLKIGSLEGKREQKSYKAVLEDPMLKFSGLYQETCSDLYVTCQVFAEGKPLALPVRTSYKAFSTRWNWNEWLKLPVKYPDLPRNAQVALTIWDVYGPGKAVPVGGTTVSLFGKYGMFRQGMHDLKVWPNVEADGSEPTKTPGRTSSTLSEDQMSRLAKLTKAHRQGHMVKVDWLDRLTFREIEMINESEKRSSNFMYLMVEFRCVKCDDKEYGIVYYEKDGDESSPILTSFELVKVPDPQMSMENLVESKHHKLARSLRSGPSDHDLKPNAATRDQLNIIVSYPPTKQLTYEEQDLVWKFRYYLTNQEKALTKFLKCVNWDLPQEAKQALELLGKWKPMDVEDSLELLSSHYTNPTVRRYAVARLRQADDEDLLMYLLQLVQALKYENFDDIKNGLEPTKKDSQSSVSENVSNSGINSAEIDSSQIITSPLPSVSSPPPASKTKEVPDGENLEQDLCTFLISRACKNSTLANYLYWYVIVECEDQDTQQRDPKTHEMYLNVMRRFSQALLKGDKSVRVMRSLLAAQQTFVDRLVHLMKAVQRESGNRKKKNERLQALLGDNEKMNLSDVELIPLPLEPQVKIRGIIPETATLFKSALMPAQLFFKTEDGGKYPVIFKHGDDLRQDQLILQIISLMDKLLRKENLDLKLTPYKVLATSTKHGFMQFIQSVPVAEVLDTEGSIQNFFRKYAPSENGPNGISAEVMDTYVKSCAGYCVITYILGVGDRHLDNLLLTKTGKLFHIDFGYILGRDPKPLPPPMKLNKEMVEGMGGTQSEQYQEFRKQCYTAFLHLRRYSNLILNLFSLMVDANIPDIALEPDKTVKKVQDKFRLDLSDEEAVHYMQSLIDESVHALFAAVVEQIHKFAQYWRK
Chain of Cyclin-dependent kinase 17 (Homo sapiens) (Q00537 whole entry, looked up): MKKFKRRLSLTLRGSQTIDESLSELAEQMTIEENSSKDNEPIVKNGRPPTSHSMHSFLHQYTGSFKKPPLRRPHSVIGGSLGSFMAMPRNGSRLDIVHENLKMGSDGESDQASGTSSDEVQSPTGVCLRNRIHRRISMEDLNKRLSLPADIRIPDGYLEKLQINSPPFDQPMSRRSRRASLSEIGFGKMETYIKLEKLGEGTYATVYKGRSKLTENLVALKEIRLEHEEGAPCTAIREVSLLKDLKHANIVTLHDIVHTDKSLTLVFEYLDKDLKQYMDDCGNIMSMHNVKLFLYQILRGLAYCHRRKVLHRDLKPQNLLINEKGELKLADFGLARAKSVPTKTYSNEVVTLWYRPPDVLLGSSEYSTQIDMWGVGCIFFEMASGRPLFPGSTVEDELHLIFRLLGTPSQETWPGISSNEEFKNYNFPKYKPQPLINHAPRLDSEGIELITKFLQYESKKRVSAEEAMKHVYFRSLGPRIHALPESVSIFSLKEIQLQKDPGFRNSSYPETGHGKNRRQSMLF
Chain of Serine/threonine-protein kinase Nek7 (Homo sapiens) (Q8TDX7 whole entry, looked up): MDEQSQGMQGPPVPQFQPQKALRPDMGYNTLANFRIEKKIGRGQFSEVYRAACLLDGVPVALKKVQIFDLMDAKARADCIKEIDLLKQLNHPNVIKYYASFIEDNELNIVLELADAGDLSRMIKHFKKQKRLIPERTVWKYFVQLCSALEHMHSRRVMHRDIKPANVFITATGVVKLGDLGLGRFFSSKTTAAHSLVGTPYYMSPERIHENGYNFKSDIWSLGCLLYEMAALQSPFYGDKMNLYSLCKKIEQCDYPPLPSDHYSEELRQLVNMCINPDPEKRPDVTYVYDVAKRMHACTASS
Chain of Mitogen-activated protein kinase 7 (Homo sapiens) (Q13164 2-816 limits assumed): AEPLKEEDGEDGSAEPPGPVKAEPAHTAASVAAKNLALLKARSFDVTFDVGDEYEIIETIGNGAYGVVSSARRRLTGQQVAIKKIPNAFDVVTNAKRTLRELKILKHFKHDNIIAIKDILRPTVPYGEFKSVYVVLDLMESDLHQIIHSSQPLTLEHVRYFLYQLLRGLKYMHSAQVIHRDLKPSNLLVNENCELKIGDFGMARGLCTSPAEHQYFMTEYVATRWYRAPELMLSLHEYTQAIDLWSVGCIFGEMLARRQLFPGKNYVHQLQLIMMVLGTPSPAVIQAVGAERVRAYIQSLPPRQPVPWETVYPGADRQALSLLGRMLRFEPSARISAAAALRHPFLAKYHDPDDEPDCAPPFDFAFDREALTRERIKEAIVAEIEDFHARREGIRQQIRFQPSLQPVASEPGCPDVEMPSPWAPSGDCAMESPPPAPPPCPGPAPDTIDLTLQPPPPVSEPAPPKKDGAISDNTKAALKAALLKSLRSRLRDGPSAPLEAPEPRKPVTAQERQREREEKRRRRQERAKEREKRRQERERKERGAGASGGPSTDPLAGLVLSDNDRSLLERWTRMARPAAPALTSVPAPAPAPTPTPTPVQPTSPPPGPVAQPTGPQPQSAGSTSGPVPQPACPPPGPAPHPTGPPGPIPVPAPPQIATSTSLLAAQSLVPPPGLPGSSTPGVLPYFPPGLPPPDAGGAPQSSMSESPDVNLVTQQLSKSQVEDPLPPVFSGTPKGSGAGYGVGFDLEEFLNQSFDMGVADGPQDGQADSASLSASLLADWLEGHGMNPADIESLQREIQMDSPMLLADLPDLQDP
Chain of Tyrosine-protein kinase JAK1 (Homo sapiens) (P23458 whole entry, the tested form may be a part): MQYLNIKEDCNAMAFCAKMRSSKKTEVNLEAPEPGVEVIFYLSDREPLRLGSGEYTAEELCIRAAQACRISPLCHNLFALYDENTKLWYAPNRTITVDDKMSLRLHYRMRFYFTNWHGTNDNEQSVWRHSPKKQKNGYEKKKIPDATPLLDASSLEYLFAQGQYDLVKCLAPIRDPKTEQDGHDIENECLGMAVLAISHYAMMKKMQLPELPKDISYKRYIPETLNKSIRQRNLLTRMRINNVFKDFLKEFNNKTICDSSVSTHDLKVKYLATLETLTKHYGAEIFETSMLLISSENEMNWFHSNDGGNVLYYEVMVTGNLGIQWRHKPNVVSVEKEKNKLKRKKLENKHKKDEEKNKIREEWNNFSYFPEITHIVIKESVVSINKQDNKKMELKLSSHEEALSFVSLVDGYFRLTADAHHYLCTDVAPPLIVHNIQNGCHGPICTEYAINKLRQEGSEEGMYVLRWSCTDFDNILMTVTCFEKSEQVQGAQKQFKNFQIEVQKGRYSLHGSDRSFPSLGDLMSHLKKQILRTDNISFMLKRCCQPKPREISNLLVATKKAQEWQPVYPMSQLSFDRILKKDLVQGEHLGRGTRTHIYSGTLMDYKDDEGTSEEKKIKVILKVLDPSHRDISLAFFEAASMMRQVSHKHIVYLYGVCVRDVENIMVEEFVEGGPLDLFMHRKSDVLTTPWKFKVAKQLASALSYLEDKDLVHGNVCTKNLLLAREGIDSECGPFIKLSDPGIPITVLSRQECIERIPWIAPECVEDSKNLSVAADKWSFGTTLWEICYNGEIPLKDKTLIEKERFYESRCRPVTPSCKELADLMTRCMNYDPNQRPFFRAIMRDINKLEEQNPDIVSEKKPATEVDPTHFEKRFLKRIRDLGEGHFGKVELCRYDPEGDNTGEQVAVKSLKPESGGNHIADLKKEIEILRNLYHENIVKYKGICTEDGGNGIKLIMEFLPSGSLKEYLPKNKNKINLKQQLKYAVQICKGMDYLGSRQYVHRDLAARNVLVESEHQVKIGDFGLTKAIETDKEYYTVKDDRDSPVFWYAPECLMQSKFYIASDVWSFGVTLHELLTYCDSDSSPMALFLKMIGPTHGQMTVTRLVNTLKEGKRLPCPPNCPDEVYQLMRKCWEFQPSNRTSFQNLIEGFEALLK
Chain of Mitogen-activated protein kinase kinase kinase kinase 1 (Homo sapiens) (Q92918 whole entry, looked up): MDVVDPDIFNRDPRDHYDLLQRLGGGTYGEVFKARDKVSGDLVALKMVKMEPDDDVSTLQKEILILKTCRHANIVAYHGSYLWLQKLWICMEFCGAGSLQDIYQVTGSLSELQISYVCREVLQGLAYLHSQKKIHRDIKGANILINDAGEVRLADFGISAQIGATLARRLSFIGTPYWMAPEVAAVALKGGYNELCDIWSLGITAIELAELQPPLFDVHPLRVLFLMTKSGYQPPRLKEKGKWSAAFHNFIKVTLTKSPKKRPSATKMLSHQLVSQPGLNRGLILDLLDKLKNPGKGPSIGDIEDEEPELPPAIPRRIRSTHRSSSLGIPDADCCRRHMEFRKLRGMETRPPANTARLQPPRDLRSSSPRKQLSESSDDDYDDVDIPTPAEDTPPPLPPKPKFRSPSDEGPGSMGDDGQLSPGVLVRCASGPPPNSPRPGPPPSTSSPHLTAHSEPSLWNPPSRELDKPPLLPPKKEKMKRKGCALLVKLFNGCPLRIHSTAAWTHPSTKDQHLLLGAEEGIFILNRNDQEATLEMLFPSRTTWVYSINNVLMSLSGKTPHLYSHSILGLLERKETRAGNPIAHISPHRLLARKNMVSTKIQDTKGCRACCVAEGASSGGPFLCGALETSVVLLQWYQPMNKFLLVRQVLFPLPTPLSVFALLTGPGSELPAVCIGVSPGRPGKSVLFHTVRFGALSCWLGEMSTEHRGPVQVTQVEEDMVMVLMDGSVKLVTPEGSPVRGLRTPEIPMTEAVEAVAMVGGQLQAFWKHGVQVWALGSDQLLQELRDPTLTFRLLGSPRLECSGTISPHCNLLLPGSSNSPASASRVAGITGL
Chain of Cyclin-dependent kinase 9 (Homo sapiens) (P50750 whole entry): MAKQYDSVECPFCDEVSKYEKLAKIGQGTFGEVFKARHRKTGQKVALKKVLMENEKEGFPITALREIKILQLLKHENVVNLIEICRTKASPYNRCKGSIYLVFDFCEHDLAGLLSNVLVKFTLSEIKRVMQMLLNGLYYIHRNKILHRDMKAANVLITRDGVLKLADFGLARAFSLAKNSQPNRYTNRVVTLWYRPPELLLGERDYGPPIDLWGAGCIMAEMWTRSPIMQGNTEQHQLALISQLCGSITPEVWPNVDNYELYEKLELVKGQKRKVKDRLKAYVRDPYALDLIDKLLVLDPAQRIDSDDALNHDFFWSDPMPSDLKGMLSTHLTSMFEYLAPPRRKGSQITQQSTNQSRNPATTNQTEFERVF

One may read the inhibition as how much of the control response was suppressed. Take `C[C@H]1COc2c(NCCCc3ccccn3)c(F)c(N)c3c(=O)c(C#N)cn1c23`: the inhibition in data set [1], in [2], in data set [3], in [4], in data set [5] and in data set [6] was under 35% in each case. Besides, the inhibition in data set [7], in data set [8], in [9], in data set [10], in [11] and in data set [12] was under 35% in each case. Moreover, the MIC against Staphylococcus aureus was over 298 µM.
For `C[C@H]1COc2c(NCCCc3ccccn3)c(F)c(N)c3c(=O)c(C(=O)O)cn1c23`, the inhibition in [1], in [2], in [3], in [4], in [5] and in [6] was under 35% throughout. In addition, the inhibition in data set [7], in data set [8], in data set [9], in [10], in data set [11] and in data set [12] was under 35% throughout. Besides, the MIC in the data set on Staphylococcus aureus amounted to 2 µM (≈ 0.825 µg/mL).
Consider `C[C@H]1COc2c(NCCCn3cccn3)c(F)c(N)c3c(=O)c(C(=O)O)cn1c23`, for which the inhibition in data set [1], in [2], in data set [3], in data set [4], in data set [5] and in [6] was under 35% throughout. Besides, the inhibition in data set [7], in [8], in data set [9], in data set [10], in [11] and in data set [12] was under 35% each time. This compound also yielded an MIC in the data set with Staphylococcus aureus of 2 µM (≈ 0.803 µg/mL).
For the compound `C[C@H]1COc2c(NCCCn3cccn3)c(F)c(N)c3c(=O)c(C#N)cn1c23`, the inhibition in data set [1], in [2], in [3], in [4], in data set [5] and in [6] was under 35% in each case. Further, the inhibition in data set [7], in data set [8], in [9], in [10], in data set [11] and in [12] was under 35% throughout. The MIC in the data set on Staphylococcus aureus was over 306 µM.
